From patent US20240050428A1 (Cullgen (Shanghai), Inc., priority 2020, published 2024)
Like-named read-outs stand apart in the source and are kept apart here.

Experiments:
[1] = test system: MV4;11 cells; experiment: Cell viability assay (CellTiter-Glo) in MV4;11 cells, alone or with gilteritinib; format: cell-based; details: Homo sapiens, MV4-11, 72 h, MV4;11 cells, three days, CellTiter-Glo, read-out: MV4
[2] = test system: MOLM-13 cells; experiment: Cell viability assay (CellTiter-Glo) in MOLM-13 cells, alone or with gilteritinib; format: cell-based; details: Homo sapiens, MOLM-13, 72 h, MOLM-13 cells, three days, CellTiter-Glo
[3] = compound alone (without gilteritinib), 11 IC50
[4] = with gilteritinib 10 nM, 11 IC50 gilteritinib
[5] = compound alone (without gilteritinib), read-out: MOLM-13 IC50
[6] = with gilteritinib 20 nM, read-out: MOLM-13 IC50 gilteritinib
[7] = compound with gilteritinib 10 nM, 11 IC50 gilteritinib
[8] = compound with gilteritinib 20 nM, read-out: MOLM-13 IC50 gilteritinib

| SMILES | IC50 [1, 3] [nM] | IC50 [1, 4] [nM] | IC50 [2, 5] [nM] | IC50 [2, 6] [nM] | IC50 [1, 7] [nM] | IC50 [2, 8] [nM] |
| --- | --- | --- | --- | --- | --- | --- |
| O=C1CCC(N2C(=O)c3ccc(NCCCCCCn4cc(-c5cnc6cccc(F)c6n5)cn4)cc3C2=O)C(=O)N1 (stereo not drawn) [GS-377, 2-(2,6-Dioxopiperidin-3-yl)-5-((6-(4-(8-fluoroquinoxalin-2-yl)-1H-pyrazol-1-yl)hexyl)amino)isoindoline-1,3-dione] | 100 to 1000 | 10 to 100 | > 1000 | < 10 | – | – |
| O=C1CCC(N2C(=O)c3ccc(NCCCN4CCC(N5CCN(c6ccccn6)CC5)C4)cc3C2=O)C(=O)N1 (stereo not drawn) [GS-344, 2-(2,6-Dioxopiperidin-3-yl)-5-((3-(3-(4-(pyridin-2-yl)piperazin-1-yl)pyrrolidin-1-yl)propyl)amino)isoindoline-1,3-dione] | > 1000 | > 1000 | > 1000 | > 1000 | – | – |
| Cc1cccnc1-c1cnn([C@H]2C[C@H](CCCNc3ccc4c(c3)C(=O)N(C3CCC(=O)NC3=O)C4=O)C2)c1 (stereo partly drawn) [GS-602, 2-(2,6-Dioxopiperidin-3-yl)-5-((3-(trans-3-(4-(3-methylpyridin-2-yl)-1H-pyrazol-1-yl)cyclobutyl)propyl)amino)isoindoline-1,3-dione] | 10 to 100 | – | 100 to 1000 | – | < 10 | 10 to 100 |
| O=C1CCC(N2C(=O)c3ccc(NCCCCCC(=O)N4CCC(n5cc(-c6cnc7cccc(C8=CCNCC8)c7n6)cn5)CC4)cc3C2=O)C(=O)N1 (stereo not drawn) [GS-480, 2-(2,6-dioxopiperidin-3-yl)-5-((6-oxo-6-(4-(4-(8-(1,2,3,6-tetrahydropyridin-4-yl)quinoxalin-2-yl)-1H-pyrazol-1-yl)piperidin-1-yl)hexyl)amino)isoindoline-1,3-dione] | 10 to 100 | – | 100 to 1000 | – | < 10 | < 10 |
| CN1CCC(c2cccc3ncc(-c4cnn(C5CCN(C(=O)CCCCCNc6ccc7c(c6)C(=O)N(C6CCC(=O)NC6=O)C7=O)CC5)c4)nc23)CC1 (stereo not drawn) [GS-045, 2-(2,6-Dioxopiperidin-3-yl)-5-((6-(4-(4-(8-(1-methylpiperidin-4-yl)quinoxalin-2-yl)-1H-pyrazol-1-yl)piperidin-1-yl)-6-oxohexyl)amino)isoindoline-1,3-dione] | 100 to 1000 | < 10 | > 1000 | < 10 | – | – |
| O=C1CCC(N2Cc3cc(NCc4cccc(N5CCC(n6cc(-c7cnc8ccccc8n7)cn6)CC5)c4)ccc3C2=O)C(=O)N1 (stereo not drawn) [GS-162, 3-(1-Oxo-5-((3-(4-(4-(quinoxalin-2-yl)-1H-pyrazol-1-yl)piperidin-1-yl)benzyl)amino)isoindolin-2-yl)piperidine-2,6-dione] | > 1000 | > 1000 | > 1000 | 10 to 100 | – | – |
| CN1CCN(c2ccc3ncc(-c4cnn([C@H]5C[C@H](CCCNc6ccc7c(c6)C(=O)N(C6CCC(=O)NC6=O)C7=O)C5)c4)nc3c2)CC12CC2 (stereo partly drawn) [GS-414, 2-(2,6-dioxopiperidin-3-yl)-5-((3-(trans-3-(4-(7-(4-methyl-4,7-diazaspiro[2.5]octan-7-yl)quinoxalin-2-yl)-1H-pyrazol-1-yl)cyclobutyl)propyl)amino)isoindoline-1,3-dione] | 100 to 1000 | – | 100 to 1000 | – | 10 to 100 | 10 to 100 |
| O=C1CCC(N2C(=O)c3ccc(NCCC[C@H]4C[C@H](n5cc(-c6cccc(N7CCNCC7)n6)cn5)C4)cc3C2=O)C(=O)N1 (stereo partly drawn) [GS-247, 2-(2,6-Dioxopiperidin-3-yl)-5-((3-(trans-3-(4-(6-(piperazin-1-yl)pyridin-2-yl)-1H-pyrazol-1-yl)cyclobutyl)propyl)amino)isoindoline-1,3-dione] | 100 to 1000 | < 10 | > 1000 | 10 to 100 | – | – |
| O=C1CCC(N2C(=O)c3ccc(NC[C@H]4C[C@H](n5cc(C6CCCC6)c(C6CC6)n5)C4)cc3C2=O)C(=O)N1 (stereo partly drawn) [GS-631, 5-(((trans-3-(4-Cyclopentyl-3-cyclopropyl-1H-pyrazol-1-yl)cyclobutyl)methyl)amino)-2-(2,6-dioxopiperidin-3-yl)isoindoline-1,3-dione] | 100 to 1000 | – | 100 to 1000 | – | 10 to 100 | 10 to 100 |
| O=C1CCC(N2C(=O)c3ccc(NCCCCCCn4cc(-c5cnc6ccc(Br)cc6n5)cn4)cc3C2=O)C(=O)N1 (stereo not drawn) [GS-503, 5-((6-(4-(7-Bromoquinoxalin-2-yl)-1H-pyrazol-1-yl)hexyl)amino)-2-(2,6-dioxopiperidin-3-yl)isoindoline-1,3-dione] | 10 to 100 | – | 100 to 1000 | – | < 10 | 10 to 100 |
| C[C@@H]1CN(c2ccc3ncc(-c4cnn([C@H]5C[C@H](CCCNc6ccc7c(c6)C(=O)N(C6CCC(=O)NC6=O)C7=O)C5)c4)nc3c2)C[C@H](C)N1C (stereo partly drawn) [GS-408, 2-(2,6-dioxopiperidin-3-yl)-5-((3-(trans-3-(4-(7-((3S,5R)-3,4,5-trimethylpiperazin-1-yl)quinoxalin-2-yl)-1H-pyrazol-1-yl)cyclobutyl)propyl)amino)isoindoline-1,3-dione] | 100 to 1000 | 10 to 100 | 100 to 1000 | 10 to 100 | – | – |
| O=C1CCC(N2C(=O)c3ccc(NCCCCCC(=O)N4CCC(n5cc(N6CCCCC6)cn5)CC4)cc3C2=O)C(=O)N1 (stereo not drawn) [GS-048, 2-(2,6-Dioxopiperidin-3-yl)-5-((6-oxo-6-(4-(4-(piperidin-1-yl)-1H-pyrazol-1-yl)piperidin-1-yl)hexyl)amino)isoindoline-1,3-dione] | 10 to 100 | < 10 | 100 to 1000 | 10 to 100 | – | – |

The remaining lines, values ahead:

| IC50 [1, 3] [nM] | IC50 [1, 4] [nM] | IC50 [2, 5] [nM] | IC50 [2, 6] [nM] | IC50 [1, 7] [nM] | IC50 [2, 8] [nM] | SMILES |
| --- | --- | --- | --- | --- | --- | --- |
| > 1000 | > 1000 | > 1000 | > 1000 | – | – | O=C(CN1CCCC(n2cc(-c3cnc4ccccc4n3)cn2)C1)NCc1ccc2c(c1)C(=O)N(C1CCC(=O)NC1=O)C2=O (stereo not drawn) [GS-346, N-((2-(2,6-Dioxopiperidin-3-yl)-1,3-dioxoisoindolin-5-yl)methyl)-2-(3-(4-(quinoxalin-2-yl)-1H-pyrazol-1-yl)piperidin-1-yl)acetamide] |
| 10 to 100 | – | 10 to 100 | – | < 10 | < 10 | O=C1CCC(N2C(=O)c3ccc(NCCC[C@H]4C[C@@H](n5cc(-c6cnc7cc(NC8COC8)ccc7n6)c(C6CC6)n5)C4)cc3C2=O)C(=O)N1 (stereo partly drawn) [GS-586, 5-((3-(Cis-3-(3-cyclopropyl-4-(6-(oxetan-3-ylamino)quinoxalin-2-yl)-1H-pyrazol-1-yl)cyclobutyl)propyl)amino)-2-(2,6-dioxopiperidin-3-yl)isoindoline-1,3-dione] |
| > 1000 | > 1000 | > 1000 | 100 to 1000 | – | – | O=C1CCC(N2C(=O)c3ccc(NCCC4CCC(n5cc(-c6cnc7ccccc7n6)cn5)CC4)cc3C2=O)C(=O)N1 (stereo not drawn) [GS-100, 2-(2,6-Dioxopiperidin-3-yl)-5-((2-(4-(4-(quinoxalin-2-yl)-1H-pyrazol-1-yl)cyclohexyl)ethyl)amino)isoindoline-1,3-dione] |
| 100 to 1000 | 10 to 100 | > 1000 | 10 to 100 | – | – | O=C1CCC(N2C(=O)c3ccc(NCCCCNC(=O)N4CCC(n5cc(-c6cnc7ccccc7n6)cn5)CC4)cc3C2=O)C(=O)N1 (stereo not drawn) [GS-379, N-(4-((2-(2,6-Dioxopiperidin-3-yl)-1,3-dioxoisoindolin-5-yl)amino)butyl)-4-(4-(quinoxalin-2-yl)-1H-pyrazol-1-yl)piperidine-1-carboxamide] |
| 100 to 1000 | 10 to 100 | > 1000 | 10 to 100 | – | – | O=C1CCC(N2C(=O)c3ccc(NCCC[C@H]4C[C@H](n5cc(-c6cnc7c(Cl)cccc7n6)cn5)C4)cc3C2=O)C(=O)N1 (stereo partly drawn) [GS-219, 5-((3-(trans-3-(4-(5-Chloroquinoxalin-2-yl)-1H-pyrazol-1-yl)cyclobutyl)propyl)amino)-2-(2,6-dioxopiperidin-3-yl)isoindoline-1,3-dione] |
| 100 to 1000 | – | 100 to 1000 | – | 10 to 100 | 10 to 100 | Cc1nn([C@H]2C[C@H](CCCNc3ccc4c(c3)C(=O)N(C3CCC(=O)NC3=O)C4=O)C2)cc1-c1cnc2c(N3CCN(C)CC3)cccc2n1 (stereo partly drawn) [GS-417, 2-(2,6-dioxopiperidin-3-yl)-5-((3-(trans-3-(3-methyl-4-(5-(4-methylpiperazin-1-yl)quinoxalin-2-yl)-1H-pyrazol-1-yl)cyclobutyl)propyl)amino)isoindoline-1,3-dione] |
| > 1000 | – | > 1000 | – | > 1000 | > 1000 | O=C1CCC(N2C(=O)c3ccc(CC[C@H]4C[C@H](n5cc(-c6cnc7ccccc7n6)c(C6CC6)n5)C4)cc3C2=O)C(=O)N1 (stereo partly drawn) [GS-627, 5-(2-(trans-3-(3-Cyclopropyl-4-(quinoxalin-2-yl)-1H-pyrazol-1-yl)cyclobutyl)ethyl)-2-(2,6-dioxopiperidin-3-yl)isoindoline-1,3-dione] |
| < 10 | < 10 | < 10 | < 10 | – | – | O=C1CCC(N2C(=O)c3ccc(NC[C@H]4C[C@H](n5cc(-c6ncccc6OC(F)(F)F)c(C6CC6)n5)C4)cc3C2=O)C(=O)N1 (stereo partly drawn) [GS-287, 5-(((trans-3-(3-Cyclopropyl-4-(3-(trifluoromethoxy)pyridin-2-yl)-1H-pyrazol-1-yl)cyclobutyl)methyl)amino)-2-(2,6-dioxopiperidin-3-yl)isoindoline-1,3-dione] |
| > 1000 | – | > 1000 | – | 100 to 1000 | 10 to 100 | O=C1CCC(N2C(=O)c3cccc(NCCCC4CC(n5cc(-c6cnc7ccccc7n6)cn5)C4)c3C2=O)C(=O)N1 (stereo not drawn) [GS-565, 2-(2,6-Dioxopiperidin-3-yl)-4-((3-(3-(4-(quinoxalin-2-yl)-1-pyrazol-1-yl)cyclobutyl)propyl)amino)isoindoline-1,3-dione] |
